Measurements reported in patent publication US20150374646A1, “TREATMENT OF CANCER AND OTHER CONDITIONS USING A TRANSCRIPTION FACTOR MODULATOR” (C & C BIOPHARMA, LLC, priority 2013, published 2015).

Tests used:
DU-145 = test: Cancer cell line growth inhibition, CellTiter-Glo (Example 3); assay type: cell-based; conditions: Homo sapiens, Prostate, 72 hours, read-out: IC50
Experimental: (§1) YT30 was tested for growth inhibition against 67 human cancer cell lines derived from diverse tissues including the National Cancer Institute human cancer cell lines (NCI-60). […] Cells in different wells were treated with various concentrations of YT30, YT86, YT88, or YT128. […] Cell viabilities were determined by the CellTiter-Glo Luminescence Cell Viability assay kit (Promega Corporation, Madison, Wis.) according to manufacturer's protocol.

HCT116 = test: as above; assay type: cell-based; conditions: Homo sapiens, HCT-116, Colon, 72 hours
Experimental: as §1

CCRF-CEM = test: as above; assay type: cell-based; conditions: Homo sapiens, Leukemia, 72 hours, read-out: IC50
Experimental: as §1

MDA-MB231 = test: as above; assay type: cell-based; conditions: Homo sapiens, MDA-MB-231; Breast, MDA-MB231; 72 hours; read-out: IC50
Experimental: as §1

UACC-62 = test: as above; assay type: cell-based; conditions: Homo sapiens, Melanoma, 72 hours
Experimental: as §1

SF-539 = test: as above; assay type: cell-based; conditions: Homo sapiens, CNS, 72 hours, read-out: IC50
Experimental: as §1

U251 = test: as above; assay type: cell-based; conditions: Homo sapiens, U-251, CNS, 72 hours, read-out: IC50
Experimental: as §1

ACHN = test: as above; assay type: cell-based; conditions: Homo sapiens, Renal, 72 hours
Experimental: as §1

MDA-MB-435 = test: as above; assay type: cell-based; conditions: Homo sapiens, Melanoma, 72 hours, read-out: IC50
Experimental: as §1

HepG2 = test: as above; assay type: cell-based; conditions: Homo sapiens, Liver, 72 hours
Experimental: as §1

SN12C = test: as above; assay type: cell-based; conditions: Homo sapiens, Renal, 72 hours, read-out: IC50
Experimental: as §1

EKVX = test: as above; assay type: cell-based; conditions: Homo sapiens, NSCLC, 72 hours
Experimental: as §1

HOP-62 = test: as above; assay type: cell-based; conditions: Homo sapiens, NSCLC, 72 hours
Experimental: as §1

SR = test: as above; assay type: cell-based; conditions: Homo sapiens, Leukemia, 72 hours, read-out: IC50
Experimental: as §1

A549 = test: as above; assay type: cell-based; conditions: Homo sapiens, NSCLC, 72 hours, read-out: IC50
Experimental: as §1

MOLT-4 = test: as above; assay type: cell-based; conditions: Homo sapiens, Leukemia, 72 hours, read-out: IC50
Experimental: as §1

RPMI-8226 = test: as above; assay type: cell-based; conditions: Homo sapiens, Leukemia, 72 hours
Experimental: as §1

OVCAR-5 = test: as above; assay type: cell-based; conditions: Homo sapiens, Ovary, 72 hours, read-out: IC50
Experimental: as §1

HL60 = test: as above; assay type: cell-based; conditions: Homo sapiens, HL-60, Leukemia, 72 hours, read-out: IC50
Experimental: as §1

A498 = test: as above; assay type: cell-based; conditions: Homo sapiens, Renal, 72 hours, read-out: IC50
Experimental: as §1

SK-MEL-2 = test: as above; assay type: cell-based; conditions: Homo sapiens, Melanoma, 72 hours
Experimental: as §1

SW-620 = test: as above; assay type: cell-based; conditions: Homo sapiens, Colon, 72 hours
Experimental: as §1

NCI-H522 = test: as above; assay type: cell-based; conditions: Homo sapiens, NSCLC, 72 hours
Experimental: as §1

OVCAR-8 = test: as above; assay type: cell-based; conditions: Homo sapiens, Ovary, 72 hours
Experimental: as §1

Nalm-6 = test: Leukemia cell growth inhibition, CellTiter-Glo (Example 1); assay type: cell-based, human
Experimental: Various human leukemia cells were grown to the logarithmic growth phase and seeded into 24-well plates. […] Treated cells were further incubated for 72 hours and then were examined for cell proliferation. Cell proliferation was determined using the CellTiter-Glo Luminescence Cell Viability assay (Promega Corporation, Madison, Wis.) according to the manufacturer's protocol. The calculated inhibition rate was determined with the following formula: Inhibition rate (%)=(1−Luminescence of experimental group/Luminescence of control group)×100. IC50 is the calculated concentration of a compound needed to inhibit half of the maximum cell growth (equivalent to cell growth in control group) based on the corresponding dose-response curve under the described experimental conditions.

Compound Nc1ccccc1NC(=O)CCCCCC(=O)Nc1cccc(Br)c1 [YT30] has an IC50 (DU-145) of 4.98 µM, an IC50 (HCT116) of 13 µM and an IC50 (CCRF-CEM) of 1.53 µM. It also gave an IC50 (MDA-MB231) of 14.2 µM, an IC50 (UACC-62) of 5.2 µM and an IC50 (SF-539) of 10.8 µM. It also gave an IC50 (U251) of 7.36 µM, an IC50 (ACHN) of 12.5 µM and an IC50 (MDA-MB-435) of 10.4 µM. The IC50 (HepG2) was 12.7 µM, the IC50 (SN12C) was 9.52 µM and the IC50 (EKVX) was 4.57 µM. For the same compound, the IC50 (HOP-62) was 29.6 µM, the IC50 (SR) was 6.89 µM and the IC50 (A549) was 3.41 µM. The IC50 (MOLT-4) was 1.13 µM, the IC50 (RPMI-8226) was 2 µM and the IC50 (OVCAR-5) was 11.9 µM. For the same compound, the IC50 (HL60) was 1.04 µM, the IC50 (A498) was 13.9 µM and the IC50 (SK-MEL-2) was 4.6 µM. For the same compound, the IC50 (SW-620) was 11 µM, the IC50 (NCI-H522) was 8.15 µM and the IC50 (OVCAR-8) was 6.74 µM. The IC50 (Nalm-6; Homo sapiens, NALM-6, ALL (B-cell), 72 hours) was 2.36 µM and the “Growth inhibition (FIG. 1)” value (Nalm-6; Nalm-6 cells, 4 μM) was “significantly inhibit cell growth”.
